For the assay, the target named is T1, mPRα (Homo sapiens, UniProt Q86WK9).
T1 construct: Full length and truncated mPRγ and mPRα were expressed in wild type cells grown in 2% galactose from the pGREG536 vector; expressed in transfected cells; host or cells: Saccharomyces cerevisiae (BY4742 wild type; also gpa mutants), GAL1-driven plasmids (TPI1 promoter in pJK90)
T1 sequence (Q86WK9 1-346): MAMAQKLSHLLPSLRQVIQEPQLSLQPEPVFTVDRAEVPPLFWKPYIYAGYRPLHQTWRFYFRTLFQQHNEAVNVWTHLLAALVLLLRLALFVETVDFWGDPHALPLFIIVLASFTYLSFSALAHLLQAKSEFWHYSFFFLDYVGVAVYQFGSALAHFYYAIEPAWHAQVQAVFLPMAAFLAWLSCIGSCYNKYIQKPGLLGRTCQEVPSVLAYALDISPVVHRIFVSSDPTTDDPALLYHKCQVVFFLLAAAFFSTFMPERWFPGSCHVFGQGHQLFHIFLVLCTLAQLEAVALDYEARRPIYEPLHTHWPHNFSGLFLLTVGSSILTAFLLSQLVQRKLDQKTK
Nature of the assay: cell-based. The text has this: Plasmids and primers. Human PAQRs were cloned into various vectors by PCR from commercially/publically available cDNAs. […] The OST4 open reading frame in pJK90 was replaced with the PAQR6 and mPRα open reading frames by gap repair. Primers for all cloning reactions are listed herein. Proteins expressed in pYES260 have an N-terminal 6×-histidine tag followed by a TEV protease cleavage site. Proteins expressed in pGREG536 have an N-terminal 7×-HA tag. Proteins expressed in the pRS316 vector are untagged. The pYES260, pRS316 and pGREG536 vectors allow for galactose-inducible expression via the GAL1 promoter. […] A pRS316-based plasmid containing the STE2 gene under the control of the GAL1 promoter (Feng et al., 2000) was kindly provided by Dr. Nicholas G. Davis (Wayne State University).
Assays and growth conditions. Strains were maintained using standard protocol and grown in synthetic defined (SD) media with the appropriate amino acids to match the auxotrophies of the individual strains. […] In brief, overnights of cells grown in SD-glucose media were re-inoculated into iron-deficient LIM to induce the expression of FET3. […] All ligands were added to the growth medium upon re-inoculation into LIM. For experiments in which steroids were added as ligands, steroids were added from ethanol stocks and “untreated” controls are actually treated with an equal volume of ethanol to control for vehicle effects. […] All experiments were performed at least three times and a representative experiment is shown. EC50 values were obtained using the web-based BioDataFit software using sigmoidal curve-fitting. (web site changbioscience.com/stat/ec50.html)

pEC50: −log10 of the molar value. Values joined by “and” are separate entries in the source; they are usually repeats but may differ in a detail not shown here. Identical values can stand only once.

For `CC(=O)[C@H]1CC[C@H]2[C@@H]3CCC4=CC(=O)CC[C@]4(C)[C@H]3CC[C@]12C` [Progesterone, progesterone], the pEC50 (as a rule, −log10 of the EC50, conventionally taken in molar units) (EC50, mPRα column of Table 4, ligand alone) was 8.66; the pEC50 (EC50, mPRα, Table 3, iron deficient LIM, 0.05% galactose) is 8.64 and 8.52 to 9.00.
